Data published in patent US11878047B2, “ATF5 peptide variants and uses thereof” (Sapience Therapeutics, Inc., priority 2018, dated 2024).
Read-outs that look alike come from different tables or passages of the source. Ends that are not written are not given here.

What was measured:
Format in all cases: cell-based, human
[1] = test system: neoplastic cells / wide range of tumor cell types; assay: Cytotoxic activity across tumor cell types
Method: ST-13 was further examined in various human cancer cell lines, as was a second retro-inverso variant, ST-14. Suspension cells (HL60, AML14, or SET2) were set at a density of 3.5×10^3 cells/well in 150 μL of RPMI+1.5% fetal bovine serum (FBS) in a tissue culture-treated 96 well dish. ATF5 peptide, reconstituted at a concentration of 10 mg/mL in 20 mM His, pH 7.5, was added to each well at a volume of 50 μL to a final concentration range of 0-80 μM. Cells were incubated with peptide for 48 hours at 37° C. Cell viability was quantified by flow cytometry using an Abcam Annexin V FITC apoptosis detection kit. […] Cells were analyzed by BD Accuri C6 Plus flow cytometer to detect Annexin V-FITC binding (Ex=488 nm; Em=530 nm) using FITC signal detector, and to detect PI staining using the phycoerythrin emission signal detector. Percentage of Annexin V^low and PI^low were quantified and presented as % Viability. EC50 values were calculated using GraphPad Prism v.7 XML. […] Cell viability was determined as described above for suspension cells or by MTT assay (MCF7 cells). Alternatively, cells were gently removed from the cell culture plate following trypsinization with 2.5% trypsin, and cell viability was quantified by flow cytometry using an Abcam Annexin V FITC apoptosis detection kit, as described above.

[2] = test system: HL60 cells; assay: HL60 cell viability (cytotoxicity) assay, Annexin V FITC/PI flow cytometry
Method: HL60 PML suspension cells were set at a density of 3.5×10^3 cells/well in 150 μL of RPMI+1.5% fetal bovine serum (FBS) in a 96 well dish. ST-3, reconstituted at a concentration of 10 mg/mL in 20 mM His, pH 7.5, was added to each well at a volume of 50 μL to a final concentration range of 0-80 μM. Cells were incubated with ST-3 for 48 hours at 37° C. Cell viability was quantified by flow cytometry using an Abcam Annexin V FITC apoptosis detection kit. Briefly, cells were washed with PBS and resuspended in 1× assay buffer containing Annexin V FITC and propidium iodide (PI). Annexin V detects apoptotic cells, and PI stains dead cells. After staining, apoptotic cells show green fluorescence, dead cells show red and green fluorescence, and live cells show little or no fluorescence. Cells were selected for analysis based on forward scatter (FSC) vs. side scatter (SSC), and analyzed by BD Accuri C6 Plus flow cytometer to detect Annexin V-FITC binding (Ex=488 nm; Em=530 nm) using FITC signal detector and PI staining by the phycoerythrin emission signal detector. Percentage of Annexin V^low and PI^low were quantified and presented as % Viability.
Lyophilized ST-3 or ST-3 with glycine (ST-4) or alanine (ST-5) substituted for cysteine at amino acid position 21 was freshly reconstituted in histidine buffer to a stock solution of 5 mg/mL and added to cells at a final concentration range of 0-40 μM. Cells were incubated with ATF5 peptide for 48 hours prior to quantification of cell viability.
(§1) ST-13 was further examined in various human cancer cell lines, as was a second retro-inverso variant, ST-14. Suspension cells (HL60, AML14, or SET2) were set at a density of 3.5×10^3 cells/well in 150 μL of RPMI+1.5% fetal bovine serum (FBS) in a tissue culture-treated 96 well dish. ATF5 peptide, reconstituted at a concentration of 10 mg/mL in 20 mM His, pH 7.5, was added to each well at a volume of 50 μL to a final concentration range of 0-80 μM. Cells were incubated with peptide for 48 hours at 37° C. Cell viability was quantified by flow cytometry using an Abcam Annexin V FITC apoptosis detection kit. Briefly, cells were washed with PBS and resuspended in 1× assay buffer containing Annexin V FITC and propidium iodide (PI). Cells were analyzed by BD Accuri C6 Plus flow cytometer to detect Annexin V-FITC binding (Ex=488 nm; Em=530 nm) using FITC signal detector, and to detect PI staining using the phycoerythrin emission signal detector. Percentage of Annexin V^low and PI^low were quantified and presented as % Viability. EC50 values were calculated using GraphPad Prism v.7 XML.

[3] = test system: MCF7 breast cancer cells
Method: Additionally, adherent A375, MCF7, U251, DU145, U87, and A549 cells were set at a density of 3.5×10^3 cells/well in 200 μL of media on day −1. On day 0, media was removed and replenished with 150 μL of fresh media, and cells were treated with ATF5 peptide as described. Following a 48-hour incubation at 37° C., floating cells were collected, adherent cells were washed with Dulbecco's Phosphate Buffered Saline (DPBS), dissociated from the dish with 50 μL 2.5% trypsin at RT, and combined with floating cells. Cell viability was determined as described above for suspension cells or by MTT assay (MCF7 cells). Alternatively, cells were gently removed from the cell culture plate following trypsinization with 2.5% trypsin, and cell viability was quantified by flow cytometry using an Abcam Annexin V FITC apoptosis detection kit, as described above.

[4] = test system: AML14 acute myeloid leukemia cells
Method: as §1

[5] = test system: SET2 acute myeloid leukemia cells
Method: as §1

[6] = HL60 cell viability assay, 48 hours

Compound	cytotoxic activity compared with other peptides [2, 6]	also measured
CC[C@@H](C)[C@@H](NC(=O)[C@@H](CCCCN)NC(=O)[C@H](NC(=O)[C@@H](Cc1c[nH]c2ccccc12)NC(=O)[C@@H](Cc1ccccc1)NC(=O)[C@@H](CCC(N)=O)NC(=O)[C@@H](CC(N)=O)NC(=O)[C@@H](CCCNC(=N)N)NC(=O)[C@@H](CCCNC(=N)N)NC(=O)[C@@H](CCSC)NC(=O)[C@@H](CCCCN)NC(=O)[C@@H](Cc1c[nH]c2ccccc12)NC(=O)[C@@H](CCCCN)NC(=O)[C@@H](CCCCN)NC(=O)[C@@H](CC(C)C)NC(=O)[C@@H](CCC(=O)O)NC(=O)CNC(=O)[C@@H](CCCNC(=N)N)NC(=O)[C@@H](C)NC(=O)[C@@H](CCC(N)=O)NC(=O)CNC(=O)[C@@H](CC(C)C)NC(=O)[C@@H](CCCNC(=N)N)NC(=O)[C@@H](C)NC(=O)[C@@H](CCC(=O)O)NC(=O)[C@@H](CC(C)C)NC(=O)[C@@H](CCCNC(=N)N)NC(=O)[C@@H](CCC(=O)O)NC(=O)[C@@H](CC(C)C)NC(=O)[C@@H](CCC(=O)O)NC(=O)[C@@H](CCC(=O)O)NC(=O)[C@@H](CCCNC(=N)N)NC(=O)[C@@H](C)NC(=O)[C@@H](CCC(=O)O)NC(=O)[C@@H](C)NC(=O)[C@H](N)C(C)C)[C@H](C)CC)C(=O)N[C@H](CCC(N)=O)C(=O)N[C@H](CCCNC(=N)N)C(=O)O [ST-13]		cytotoxic activity in tumor / neoplastic cells [1]: significant cytotoxic activity; cytotoxic activity compared with other peptides [2]: comparable activity to ST-11, and superior activity to ST-3; EC50 [3]: < 1000 nM; EC50 [4]: < 1000 nM; EC50 [5]: 17.7 µM
RQIKIWFQNRRMKWKKLEGEAQGLEARNRELKERAESV [ST-5]	attenuated but not ablated	
RQIKIWFQNRRMKWKKLEGECQGLEARNRELKERAEAV [ST-6]	comparable activity to ST-3	
RQIKIWFQNRRMKWKKLEGECQGLEARNRELKERAESV [ST-3, reference compound]		cytotoxic activity in tumor / neoplastic cells [1]: induces cell death in neoplastic cells
RQIKIWFQNRRMKWKKLEGEGQGLEARNRELKERAESV [ST-4]	attenuated but not ablated	
RQIKIWFQNRRMKWKKLEGRAQGLRAELRELEERAEAV [ST-11]	improved cytotoxic activity over ST-3	
RQIKIWFQNRRMKWKKLEGRCQGLRAELRELEERAEAV [ST-10]	comparable to that of ST-9	
RQIKIWFQNRRMKWKKLEGRCQGLRAENRELEERAESV [ST-9]	significantly increased over that of ST-3	
